Laboratory results reported in PMC12040169 (PLOS Biology, 2025).

assay: in vitro; settings: human, hela cells, % viability

Row | SMILES | viability at 28.5 h, 10 µM
1 | CCNS(=O)(=O)c1ccc(Cn2nc(NC(=O)C3COc4ccccc4O3)c3ccccc32)cc1 (centres unmarked) [CBK061613] | 109%
2 | CN1CCC2(CC1)NCCc1c2ccn1S(=O)(=O)c1cccc2c(N(C)C)cccc12 [CBK061633C] | 105%
3 | CCN(C(=O)c1cnccn1)C(CC1CCCCC1)c1ccccc1 (centres unmarked) [CBK061638] | 92.9%
4 | COc1ccc2[nH]c3c(c2c1)CCNC31CCN(C(=O)COc2ccccc2)C1 (centres unmarked) [CBK061661] | 88.8%
5 | Cc1c(C(N)=O)sc2nc(C(F)(F)F)cc(N)c12 [CBK061693] | 97.1%
6 | CN(C)c1ccnc2sc(C(N)=O)c(N)c12 [CBK061708] | 94%
7 | O=C(Nc1cccc(C(F)(F)F)c1)Nc1cc(N2CCNCC2)c2occc2c1 [CBK061746C] | 91.4%
8 | Cn1cc(CCCC(=O)NCCC2=CCCCC2)c2ccccc21 [CBK061756] | 99.2%
9 | O=C(Nc1cc(N2CCNCC2)c2occc2c1)c1cccc(C(F)(F)F)c1 [CBK061762C] | 86.5%
10 | CCNC(CO)c1ccccc1 (centres unmarked) [CBK061785] | 109%
11 | Fc1ccc(OCCN2CCC3(C2)OCCc2c3[nH]c3ccccc23)cc1 (centres unmarked) [CBK061787] | 86.7%
12 | Cc1ccc2[nH]cc(CCN3CCC4(C3)OCCc3c4[nH]c4ccccc34)c2c1 (centres unmarked) [CBK061790] | 84.7%
13 | CC(=O)c1ccc(-c2ccc3ccc(N)nc3n2)cc1 [CBK061862] | 84.4%
14 | Nc1ccc2ccc(-c3ccccc3)nc2n1 [CBK061865] | 97%
15 | CC(C)(C)c1ccc(-c2ccc3ccc(N)nc3n2)cc1 [CBK061872] | 79.3%
16 | CC(=O)c1ccc(-c2nc(NS(C)(=O)=O)cc3cccnc23)cc1 [CBK061874] | 96.3%
17 | COc1cc(-c2nc(N)cc3cccnc23)cc(OC)c1OC [CBK061892] | 101%
18 | CS(=O)(=O)Nc1ccc2cc(-c3ccccc3)cnc2n1 [CBK061899] | 91.2%
19 | CN1CCC2(CC1)NCCc1c2ccn1S(=O)(=O)c1ccc(I)cc1 [CBK061945C] | 111%
20 | Cc1nn(C)c(Cl)c1S(=O)(=O)Nc1nnc(C(F)(F)F)s1 [CBK062003] | 92%
21 | O=S(=O)(Nc1nnc(C(F)(F)F)s1)c1ccc(Oc2ccccc2)cc1 [CBK062007] | 92.6%

Row | SMILES | viability at 28.5 h, 10 µM
22 | O=S(=O)(Nc1nnc(C(F)(F)F)s1)c1csc2ccccc12 [CBK062009] | 95.9%
23 | O=S(=O)(Nc1nnc(C(F)(F)F)s1)c1ccc(Br)cc1C(F)(F)F [CBK062013] | 96.7%
24 | Cc1nnc(-c2cccc(S(=O)(=O)Nc3nnc(C(F)(F)F)s3)c2)o1 [CBK062014] | 99.1%
25 | Cn1nc(-c2ccc(S(=O)(=O)Nc3nnc(C(F)(F)F)s3)s2)cc1C(F)(F)F [CBK062017] | 103%
26 | O=S(=O)(Nc1nnc(C(F)(F)F)s1)c1ccc(-c2cc(C(F)(F)F)on2)s1 [CBK062019] | 91.1%
27 | O=S(=O)(NC1CCN(Cc2ccccc2)CC1)c1ccc(-c2ccon2)s1 [CBK062038] | 93.5%
28 | Cn1nccc1NS(=O)(=O)c1cccc2cccnc12 [CBK062069] | 98.9%
29 | Cc1nn(C)c(Cl)c1S(=O)(=O)Nc1ccnn1C [CBK062072] | 85.6%
30 | Cn1nccc1NS(=O)(=O)c1ccc(Br)cc1C(F)(F)F [CBK062082] | 104%
31 | Cn1nccc1NS(=O)(=O)c1ccc(-c2cc(C(F)(F)F)on2)s1 [CBK062087] | 97.4%
32 | O=S(=O)(Nc1ccc(C(O)(C(F)(F)F)C(F)(F)F)cc1)c1cccc2cccnc12 [CBK062092] | 91%
33 | O=[N+]([O-])c1cccc(S(=O)(=O)Nc2ccc(C(O)(C(F)(F)F)C(F)(F)F)cc2)c1 [CBK062093] | 102%
34 | O=S(=O)(Nc1ccc(C(O)(C(F)(F)F)C(F)(F)F)cc1)c1csc2ccccc12 [CBK062098] | 85.4%
35 | O=[N+]([O-])c1cc(S(=O)(=O)Nc2ccc(C(O)(C(F)(F)F)C(F)(F)F)cc2)ccc1Cl [CBK062106] | 92.9%
36 | Cc1noc(C)c1S(=O)(=O)NCc1ccc(C(F)(F)F)c(F)c1 [CBK062112] | 94.2%
37 | O=S(=O)(NCc1ccc(C(F)(F)F)c(F)c1)c1cccc2nsnc12 [CBK062113] | 94.3%
38 | CS(=O)(=O)Nc1cccc(-c2nnn[nH]2)c1 [CBK062150] | 90.4%
39 | Cc1nn(C)c(Cl)c1S(=O)(=O)NCc1cc(C)n(C)n1 [CBK062154] | 94.5%
40 | Cc1noc(C)c1S(=O)(=O)NCc1cc(C)n(C)n1 [CBK062155] | 103%
41 | Cc1cc(CNS(=O)(=O)c2cccc3nonc23)nn1C [CBK062157] | 98.2%
42 | CCc1nnc(NS(=O)(=O)c2c(C)nn(C)c2Cl)s1 [CBK062180] | 112%

Row | SMILES | viability at 28.5 h, 10 µM
43 | CCc1nnc(NS(C)(=O)=O)s1 [CBK062197] | 93%
44 | O=S(=O)(Nc1cc(Cl)nc(Cl)c1)c1ccc(-c2cc(C(F)(F)F)on2)s1 [CBK062215] | 90.9%
45 | O=S(=O)(Nc1ccc2nsnc2c1)c1cccc(C(F)(F)F)c1 [CBK062221] | 106%
46 | Cc1noc(C)c1S(=O)(=O)Nc1ccc2nsnc2c1 [CBK062223] | 90.4%
47 | Cc1c(S(=O)(=O)Nc2ccc3nsnc3c2)cnn1-c1ccccc1 [CBK062229] | 87.6%
48 | O=S(=O)(Nc1ccc2nsnc2c1)c1ccc(Br)cc1C(F)(F)F [CBK062233] | 115%
49 | Cc1cc(CNS(=O)(=O)c2c(C)noc2C)no1 [CBK062261] | 91.4%
50 | Cc1cc(CNS(=O)(=O)c2cccc3nonc23)no1 [CBK062263] | 106%
51 | Cc1cc(CNS(=O)(=O)c2ccc(-c3ccon3)s2)no1 [CBK062276] | 103%
52 | Cc1nn(C)c(Cl)c1S(=O)(=O)Nc1cccnc1N1CCOCC1 [CBK062286] | 99.5%
53 | O=S(=O)(Nc1cccnc1N1CCOCC1)c1cc(C(F)(F)F)cc(C(F)(F)F)c1 [CBK062306] | 122%
54 | Cc1cnc(CNS(=O)(=O)c2cnn(-c3ccccc3)c2C)cn1 [CBK062335] | 96.5%
55 | Cc1cc(OC(F)(F)F)ccc1NS(=O)(=O)c1cnn(-c2ccccc2)c1C [CBK062354] | 91.1%
56 | O=S(=O)(Nc1nnn[nH]1)c1cccc2nsnc12 [CBK062379] | 99%
57 | O=S(=O)(Nc1nnn[nH]1)c1cccc2nonc12 [CBK062380] | 104%
58 | O=S(=O)(Nc1nnn[nH]1)c1ccc(-c2ccccc2)cc1 [CBK062381] | 99.7%
59 | O=S(=O)(Nc1nnn[nH]1)c1ccccc1Br [CBK062386] | 96.3%
60 | O=S(=O)(Nc1nnn[nH]1)c1ccc(Cl)c(Cl)c1 [CBK062387] | 106%
61 | O=S(=O)(Nc1nnn[nH]1)c1ccc(Br)cc1C(F)(F)F [CBK062388] | 104%
62 | Cn1nc(-c2ccc(S(=O)(=O)Nc3nnn[nH]3)s2)cc1C(F)(F)F [CBK062390] | 94.4%
63 | Cc1c(S(=O)(=O)Nc2nnn[nH]2)sc2ccc(Cl)cc12 [CBK062392] | 91.7%

same assay, conditions: human, hela cells, % viability, bulk resorufin, single well

Row | SMILES | viability at 28.5 h, 10 µM
64 | CSc1cc(C)c2c(c1)COC1(CCN(C(=O)c3ccccc3C(=O)O)CC1)O2 [CBK060843] | 94.1%
65 | COc1ccc2c(c1)COC1(CCN(C(=O)CC(C)(C)CC(=O)O)CC1)O2 [CBK060855] | 90.3%
66 | O=C(O)COCC(=O)N1CCC2(CC1)OCc1cc(F)ccc1O2 [CBK060859] | 106%
67 | O=C(O)c1ccccc1C(=O)N1CCC2(CC1)OCc1cc(F)ccc1O2 [CBK060863] | 109%
68 | Cc1ccc(-c2ccc3c(c2)COC2(CCNCC2)O3)c(C)c1 [CBK060881] | 89.7%
69 | CC(=O)N1CCC2(CC1)OCc1cc(-c3ccc(C)o3)ccc1O2 [CBK060889] | 87.1%
70 | Fc1cc(F)cc(-c2ccc3c(c2)COC2(CCNCC2)O3)c1 [CBK060915] | 87.7%
71 | c1cc2c(cc1-c1ccc3c(c1)COC1(CCNCC1)O3)CCO2 [CBK060920] | 108%
72 | c1cc2c(cc1-c1ccc3c(c1)OCO3)COC1(CCNCC1)O2 [CBK060925] | 95.9%
73 | c1ccc2c(-c3ccc4c(c3)COC3(CCNCC3)O4)cccc2c1 [CBK060951] | 92.5%
74 | CC(=O)c1ccc(-c2ccc3c(c2)COC2(CCN(C(C)=O)CC2)O3)s1 [CBK060967] | 109%
75 | CC(=O)N1CCC2(CC1)OCc1cc(-c3cccc4cccnc34)ccc1O2 [CBK060969] | 88.4%
76 | CC(=O)N1CCC2(CC1)OCc1cc(-c3ccc(Cl)cc3)ccc1O2 [CBK060974] | 113%
77 | CC(=O)N1CCC2(CC1)OCc1cc(-c3cnc4ccccc4c3)ccc1O2 [CBK060976] | 93.8%
78 | CS(=O)(=O)c1cccc(-c2ccc3c(c2)COC2(CCNCC2)O3)c1 [CBK060990] | 94.4%
79 | c1cc(-c2ccc3c(c2)COC2(CCNCC2)O3)c2cccnc2c1 [CBK060995] | 104%
80 | CC(=O)N1CCC2(CC1)OCc1cc(-c3ccccc3C#N)ccc1O2 [CBK061006] | 100%
81 | CN(C)c1ccc(C(=O)N2CCC3(CC2)OCc2cc(Cl)ccc2O3)cc1 [CBK061067] | 87.8%
82 | CSc1cc(C)c2c(c1)COC1(CCN(C(=O)Cc3ccccc3)CC1)O2 [CBK061099] | 93.4%
83 | CSc1cc(C)c2c(c1)COC1(CCN(C(=O)c3ccco3)CC1)O2 [CBK061106] | 92.6%
84 | O=C1NC(=O)C(CC(=O)N2CCC3(CC2)OCc2cc(-c4ccccc4)ccc2O3)N1 (centres unmarked) [CBK061111] | 85.6%
85 | CC(C)C(=O)N1CCC2(CC1)OCc1cc(Cl)ccc1O2 [CBK061121] | 89.6%
86 | COc1cccc2c1OC1(CCN(C(=O)c3cccn3C)CC1)OC2 [CBK061166] | 85.1%
87 | COc1cccc2c1OC1(CCN(C(=O)C3CCC3)CC1)OC2 [CBK061168] | 85.4%
88 | O=C(c1ccoc1)N1CCC2(CC1)OCc1ccccc1O2 [CBK061234] | 94.7%
89 | Cc1nocc1C(=O)N1CCC2(CC1)OCc1ccccc1O2 [CBK061470] | 105%
